According to ChEMBL document CHEMBL1201862, “PubChem BioAssay data set” (2004):
The source made the active and inactive calls.

Key:
[1] = biological target: T1, Carboxy-terminal domain RNA polymerase II polypeptide A small phosphatase 1 (Homo sapiens, UniProt Q9GZU7); test: inhibitors of CTDSP1, concentration-response testing, biochemical assay, absorbance-based, actives from ultra-high-throughput screening (AID 540297); type: functional
T1 sequence (Q9GZU7 whole entry): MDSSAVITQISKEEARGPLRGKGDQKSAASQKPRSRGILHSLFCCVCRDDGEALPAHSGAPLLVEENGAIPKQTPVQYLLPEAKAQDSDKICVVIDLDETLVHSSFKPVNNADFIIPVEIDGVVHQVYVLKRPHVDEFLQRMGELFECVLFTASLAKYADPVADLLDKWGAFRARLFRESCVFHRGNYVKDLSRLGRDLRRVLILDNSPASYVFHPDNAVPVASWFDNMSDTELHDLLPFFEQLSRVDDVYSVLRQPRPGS

[2] = biological target: T2, Short transient receptor potential channel 4 (Mus musculus, UniProt Q9QUQ5); test: mouse TRPC4 channel inhibitors, dose response, cell-based, HEK293 TRPC4/mu-opioid, Fluo-4 calcium (AID 434942); type: functional;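 also: potency of inhibitors blocking the TRPC4 calcium response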
T2 sequence (Q9QUQ5 whole entry): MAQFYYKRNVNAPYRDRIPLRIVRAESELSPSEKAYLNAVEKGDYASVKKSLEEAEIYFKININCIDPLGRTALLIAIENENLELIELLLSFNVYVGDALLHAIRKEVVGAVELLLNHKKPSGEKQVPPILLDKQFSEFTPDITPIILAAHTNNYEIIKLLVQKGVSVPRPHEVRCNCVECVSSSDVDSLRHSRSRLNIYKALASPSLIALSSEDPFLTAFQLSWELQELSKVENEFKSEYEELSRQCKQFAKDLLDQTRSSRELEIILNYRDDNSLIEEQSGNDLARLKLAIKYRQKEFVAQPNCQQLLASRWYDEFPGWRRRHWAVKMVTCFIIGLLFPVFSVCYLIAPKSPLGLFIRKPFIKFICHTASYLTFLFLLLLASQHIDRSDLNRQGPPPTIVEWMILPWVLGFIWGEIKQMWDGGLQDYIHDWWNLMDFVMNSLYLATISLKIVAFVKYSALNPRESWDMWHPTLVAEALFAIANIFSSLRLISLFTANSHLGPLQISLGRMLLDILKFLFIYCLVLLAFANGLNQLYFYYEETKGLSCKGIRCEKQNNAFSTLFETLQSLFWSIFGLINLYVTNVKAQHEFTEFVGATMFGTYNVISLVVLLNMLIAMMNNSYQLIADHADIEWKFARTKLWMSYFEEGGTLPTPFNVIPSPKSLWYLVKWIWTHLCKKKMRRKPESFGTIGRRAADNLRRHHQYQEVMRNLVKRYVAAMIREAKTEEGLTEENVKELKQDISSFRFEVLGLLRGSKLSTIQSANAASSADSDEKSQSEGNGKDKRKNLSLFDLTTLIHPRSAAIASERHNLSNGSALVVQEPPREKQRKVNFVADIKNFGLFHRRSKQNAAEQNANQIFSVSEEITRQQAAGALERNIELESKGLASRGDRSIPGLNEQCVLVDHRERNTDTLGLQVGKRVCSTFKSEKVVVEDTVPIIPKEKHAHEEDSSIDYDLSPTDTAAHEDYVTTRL

[3] = biological target: T2, Short transient receptor potential channel 4; test: mouse TRPC4 channel activators, dose response, cell-based, HEK293 TRPC4/mu-opioid, Fluo-4 calcium (AID 434937); type: functional
[4] = biological target: Delta-type opioid receptor (Homo sapiens, UniProt P41143); test: Counterscreen for agonists of heterodimerization of the mu 1 (OPRM1) and delta 1 (OPRD1) opioid receptors: Luminescence-based cell-based high throughput dose response assay to identify agonists of OPRD1 homodimerization. [Related pubchem assays (depositor defined):AID504326, AID504355, AID504692, AID504904, AID504905]; type: functional
Mu-type opioid receptor = Mu-type opioid receptor (Homo sapiens, UniProt P35372); test: Counterscreen for agonists of heterodimerization of the mu 1 (OPRM1) and delta 1 (OPRD1) opioid receptors: Luminescence-based cell-based high throughput dose response assay to identify agonists of OPRM1 homodimerization.; type: functional;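 also: U2OS cells expressing OPRM1 and beta-arrestin as split beta-galactosidase partners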
[5] = biological target: 5-hydroxytryptamine receptor 5A (Homo sapiens, UniProt P47898); test: Counterscreen for agonists of OPRM1-OPRD1 heterodimerization: luminescence-based cell-based high throughput dose response assay to identify agonists of 5-hydroxytryptamine (serotonin) 5A receptor (HTR5A). [Related pubchem assays (depositor defined):AID504326, AID504355, AID504692, AID504904, AID504905]; type: functional
HeLa = test: HeLa cell cytotoxicity, dose response, cytotoxicity control for MITF activator project, CellTiter-Glo luminescence, cherry-pick samples (AID 540259); type: functional, cell-based; settings: Homo sapiens
[6] = Luminescence Cell-Based Dose Confirmation HTS to Identify Activators of 5'UTR Stem-Loop Driven Alpha-Synuclein mRNA Translation in H4 Neuroglioblastoma Cells. [Related pubchem assays: 1829 (Project Summary), 1814 (Primary HTS)]; type: functional
[7] = Luminescence Cell-Based Dose Response HTS to Identify Activators of Luciferase Translation or Activity in H4 […] Cells. [Related pubchem assays: 1829 (Project Summary), 1814 (Primary HTS)]; type: functional
H4 = test: Luminescence Cell-Based Dose Response HTS to Identify Activators of 5'UTR Stem-Loop Driven Prion Protein mRNA Translation in H4 Neuroglioblastoma Cells. [Related pubchem assays: 1829 (Project Summary), 1814 (Primary HTS)]; type: functional; settings: Homo sapiens
[8] = biological target: Luciferin 4-monooxygenase (Photinus pyralis, UniProt P08659); test: firefly luciferase enzyme inhibitors, dose response, biochemical, luminescence (AID 1891)
[9] = Luminescence Cell-Based Dose Confirmation HTS to Identify Inhibitors of Platelet Dense Granule Release. [Related pubchem assays: 1663 (Primary HTS), 1678 (Summary of Project)]; type: functional
[10] = biological target: T3, Apoptotic protease-activating factor 1 (Homo sapiens, UniProt O14727); type: functional
T3 sequence (O14727 whole entry): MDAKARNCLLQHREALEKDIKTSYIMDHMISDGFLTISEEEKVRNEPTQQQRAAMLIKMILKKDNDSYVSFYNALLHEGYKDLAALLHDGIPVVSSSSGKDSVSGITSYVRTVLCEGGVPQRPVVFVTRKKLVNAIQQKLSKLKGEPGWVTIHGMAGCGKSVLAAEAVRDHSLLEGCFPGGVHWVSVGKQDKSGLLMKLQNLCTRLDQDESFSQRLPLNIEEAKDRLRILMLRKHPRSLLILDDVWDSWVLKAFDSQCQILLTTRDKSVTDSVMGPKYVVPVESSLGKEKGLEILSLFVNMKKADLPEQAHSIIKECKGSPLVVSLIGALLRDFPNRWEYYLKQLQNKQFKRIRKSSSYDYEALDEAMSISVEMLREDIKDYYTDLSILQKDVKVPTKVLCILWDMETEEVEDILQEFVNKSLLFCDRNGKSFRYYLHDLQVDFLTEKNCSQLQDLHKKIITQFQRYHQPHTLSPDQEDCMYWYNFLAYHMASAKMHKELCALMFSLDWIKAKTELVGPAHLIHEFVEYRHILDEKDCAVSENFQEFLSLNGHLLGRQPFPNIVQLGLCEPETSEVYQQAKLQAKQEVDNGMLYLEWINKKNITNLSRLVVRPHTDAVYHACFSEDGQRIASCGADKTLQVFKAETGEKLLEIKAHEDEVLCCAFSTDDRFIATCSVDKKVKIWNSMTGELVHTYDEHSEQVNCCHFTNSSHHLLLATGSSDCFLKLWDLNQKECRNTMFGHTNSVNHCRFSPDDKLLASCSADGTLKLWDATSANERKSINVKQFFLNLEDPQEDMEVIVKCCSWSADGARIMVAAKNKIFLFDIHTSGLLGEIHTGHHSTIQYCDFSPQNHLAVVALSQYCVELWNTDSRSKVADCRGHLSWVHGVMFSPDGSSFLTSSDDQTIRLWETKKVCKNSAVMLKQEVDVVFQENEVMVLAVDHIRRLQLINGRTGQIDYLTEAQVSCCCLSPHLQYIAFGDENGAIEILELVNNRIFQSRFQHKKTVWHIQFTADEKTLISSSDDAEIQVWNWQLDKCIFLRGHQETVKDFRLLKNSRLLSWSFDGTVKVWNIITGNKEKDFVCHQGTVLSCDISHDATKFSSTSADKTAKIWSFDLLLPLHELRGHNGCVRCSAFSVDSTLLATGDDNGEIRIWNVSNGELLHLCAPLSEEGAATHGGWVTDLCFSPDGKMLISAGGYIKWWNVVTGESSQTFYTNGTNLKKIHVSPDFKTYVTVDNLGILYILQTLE

Beta-galactosidase = Beta-galactosidase (Escherichia coli, UniProt Q8VNN2); test: PubChem AID 485352; type: functional
[11] = biological target: T4, Type-1 angiotensin II receptor (Homo sapiens, UniProt P30556); test: AT1 receptor antagonists, dose response, selectivity assay for APJ receptor antagonist project, cell-based, uHTS hits (AID 463214); type: functional;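 also: antagonist potency against angiotensin II stimulated AT1 response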
T4 sequence (P30556 whole entry): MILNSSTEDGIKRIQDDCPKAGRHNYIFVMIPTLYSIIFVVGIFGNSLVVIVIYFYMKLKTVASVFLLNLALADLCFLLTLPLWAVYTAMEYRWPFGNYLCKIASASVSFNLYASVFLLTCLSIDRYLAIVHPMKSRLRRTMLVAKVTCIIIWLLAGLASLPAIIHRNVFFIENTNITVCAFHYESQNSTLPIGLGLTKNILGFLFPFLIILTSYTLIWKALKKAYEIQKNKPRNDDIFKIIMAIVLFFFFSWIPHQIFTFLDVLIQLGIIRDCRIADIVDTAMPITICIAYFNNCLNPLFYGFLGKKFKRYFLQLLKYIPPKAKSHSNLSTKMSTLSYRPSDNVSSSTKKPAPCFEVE

CHO = test: cytotoxicity in TLR9-MyD88 CHO cells, dose response, cytotoxicity control for TLR9-MyD88 binding inhibitor project, cell-based, luminescence (AID 588339); type: functional, hamster; settings: Cricetulus griseus;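 also: CHO cells stably coexpressing TLR9 and MyD88 fusions from primary screen; compound exposure lasted 48 hours before viability readout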
INS1 = test: beta cell apoptosis inhibitors, cytokine rescue, dose response, luminescence, retest (AID 449756); type: functional, cell-based; settings: Rattus norvegicus;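 also: cell death triggered by IL-1 beta plus TNF-alpha plus IFN-gamma mixture; protective hits raise ATP signal compared with cytokine alone wells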
[12] = Shn3 3'UTR reporter inhibitors, dose response, cell-based, Clone20 osteoblasts, firefly luciferase, cherry-picked (AID 624132); type: functional;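 also: firefly luciferase luminescence from reporter carrying the Shn3 3'UTR in osteoblasts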
[13] = HepG2 cell cytotoxicity, dose response, cytotoxicity control for Shn3 inhibitor project, CellTiter-Glo, cherry-picked (AID 624134); type: functional, cell-based
[14] = control 3'UTR Renilla luciferase suppression, dose response, counter-screen for Shn3 inhibitor project, cell-based, Clone20-Shn3RL, cherry-picked (AID 624133); type: functional
Fatty acid synthase [15] = biological target: T5, Fatty acid synthase (Homo sapiens, UniProt P49327); test: FAS thioesterase domain inhibitors, dose response, biochemical, endpoint fluorescence intensity, uHTS hits (AID 624327); type: functional;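 also: fluorescence from hydrolysis of an O-methyl fluorescein acyl ester substrate by the enzyme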
Fatty acid synthase [16] = biological target: T5, Fatty acid synthase; test: FAS thioesterase domain inhibitors, dose response, biochemical, kinetic fluorescence intensity (AID 624326); type: functional;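 also: rate of fluorescence rise from hydrolysis of a fluorogenic O-methyl fluorescein ester substrate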

T5 sequence (P49327 whole entry, the tested form may be a part): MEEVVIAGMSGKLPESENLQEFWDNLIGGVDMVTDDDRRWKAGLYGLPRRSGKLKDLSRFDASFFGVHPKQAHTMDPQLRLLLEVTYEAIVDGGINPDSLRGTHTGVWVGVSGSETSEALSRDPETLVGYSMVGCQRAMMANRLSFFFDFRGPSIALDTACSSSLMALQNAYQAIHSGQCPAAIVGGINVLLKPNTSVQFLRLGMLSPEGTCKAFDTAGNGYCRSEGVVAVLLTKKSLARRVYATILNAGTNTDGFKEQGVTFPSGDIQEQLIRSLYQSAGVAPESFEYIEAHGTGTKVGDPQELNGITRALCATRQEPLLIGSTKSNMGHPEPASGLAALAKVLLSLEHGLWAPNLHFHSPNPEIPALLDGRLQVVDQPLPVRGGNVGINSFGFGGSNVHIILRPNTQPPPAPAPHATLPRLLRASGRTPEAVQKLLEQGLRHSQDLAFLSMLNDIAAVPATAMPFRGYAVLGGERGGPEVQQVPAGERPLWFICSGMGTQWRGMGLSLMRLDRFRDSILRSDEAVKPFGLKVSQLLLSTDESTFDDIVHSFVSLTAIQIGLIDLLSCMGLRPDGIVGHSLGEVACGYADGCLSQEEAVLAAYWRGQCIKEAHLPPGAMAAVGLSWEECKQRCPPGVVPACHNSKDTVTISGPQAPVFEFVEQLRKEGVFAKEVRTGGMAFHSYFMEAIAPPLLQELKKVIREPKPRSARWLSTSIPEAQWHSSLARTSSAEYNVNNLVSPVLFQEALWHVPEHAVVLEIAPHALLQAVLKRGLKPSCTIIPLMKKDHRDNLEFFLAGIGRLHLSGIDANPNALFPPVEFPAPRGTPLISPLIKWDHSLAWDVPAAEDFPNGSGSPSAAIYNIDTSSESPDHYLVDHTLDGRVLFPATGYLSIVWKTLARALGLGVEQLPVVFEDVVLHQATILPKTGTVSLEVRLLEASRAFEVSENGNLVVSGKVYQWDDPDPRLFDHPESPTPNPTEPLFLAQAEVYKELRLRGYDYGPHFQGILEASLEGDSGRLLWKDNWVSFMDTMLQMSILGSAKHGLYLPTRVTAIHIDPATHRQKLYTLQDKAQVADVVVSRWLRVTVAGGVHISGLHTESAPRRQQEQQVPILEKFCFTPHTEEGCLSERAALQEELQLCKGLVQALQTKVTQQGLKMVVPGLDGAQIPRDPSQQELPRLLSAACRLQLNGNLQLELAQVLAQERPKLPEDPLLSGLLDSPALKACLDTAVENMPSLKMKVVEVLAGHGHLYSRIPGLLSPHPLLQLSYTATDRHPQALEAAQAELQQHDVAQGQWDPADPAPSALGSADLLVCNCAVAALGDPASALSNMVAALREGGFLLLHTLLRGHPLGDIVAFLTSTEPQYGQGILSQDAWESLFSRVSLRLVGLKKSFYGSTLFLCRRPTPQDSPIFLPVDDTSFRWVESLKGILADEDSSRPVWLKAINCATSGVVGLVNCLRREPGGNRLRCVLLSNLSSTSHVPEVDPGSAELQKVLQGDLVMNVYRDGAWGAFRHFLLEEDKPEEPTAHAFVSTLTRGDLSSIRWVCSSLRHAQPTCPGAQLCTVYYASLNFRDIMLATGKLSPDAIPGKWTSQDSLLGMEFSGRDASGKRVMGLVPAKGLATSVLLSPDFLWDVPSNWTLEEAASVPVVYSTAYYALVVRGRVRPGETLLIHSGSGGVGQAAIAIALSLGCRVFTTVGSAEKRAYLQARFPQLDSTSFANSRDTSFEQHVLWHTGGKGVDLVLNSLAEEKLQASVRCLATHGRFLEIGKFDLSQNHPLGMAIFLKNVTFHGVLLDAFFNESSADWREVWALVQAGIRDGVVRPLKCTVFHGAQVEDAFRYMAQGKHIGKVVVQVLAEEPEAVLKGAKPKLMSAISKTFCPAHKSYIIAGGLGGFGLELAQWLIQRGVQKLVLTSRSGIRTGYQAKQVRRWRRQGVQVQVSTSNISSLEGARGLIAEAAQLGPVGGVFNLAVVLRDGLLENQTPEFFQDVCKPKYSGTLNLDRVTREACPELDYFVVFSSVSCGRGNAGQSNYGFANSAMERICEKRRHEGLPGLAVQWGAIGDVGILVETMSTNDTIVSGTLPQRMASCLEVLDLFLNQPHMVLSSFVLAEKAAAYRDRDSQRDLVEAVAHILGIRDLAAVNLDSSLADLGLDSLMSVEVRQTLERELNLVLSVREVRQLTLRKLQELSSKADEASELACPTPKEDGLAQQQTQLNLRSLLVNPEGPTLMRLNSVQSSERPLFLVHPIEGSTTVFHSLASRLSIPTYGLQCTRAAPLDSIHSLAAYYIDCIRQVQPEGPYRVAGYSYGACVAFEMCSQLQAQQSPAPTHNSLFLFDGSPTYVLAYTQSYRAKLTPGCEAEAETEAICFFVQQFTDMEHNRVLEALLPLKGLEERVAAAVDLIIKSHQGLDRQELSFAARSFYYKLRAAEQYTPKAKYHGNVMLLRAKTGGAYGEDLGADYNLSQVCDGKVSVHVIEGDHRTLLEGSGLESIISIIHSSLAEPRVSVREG
Chain of Beta-galactosidase (Q8VNN2 whole entry): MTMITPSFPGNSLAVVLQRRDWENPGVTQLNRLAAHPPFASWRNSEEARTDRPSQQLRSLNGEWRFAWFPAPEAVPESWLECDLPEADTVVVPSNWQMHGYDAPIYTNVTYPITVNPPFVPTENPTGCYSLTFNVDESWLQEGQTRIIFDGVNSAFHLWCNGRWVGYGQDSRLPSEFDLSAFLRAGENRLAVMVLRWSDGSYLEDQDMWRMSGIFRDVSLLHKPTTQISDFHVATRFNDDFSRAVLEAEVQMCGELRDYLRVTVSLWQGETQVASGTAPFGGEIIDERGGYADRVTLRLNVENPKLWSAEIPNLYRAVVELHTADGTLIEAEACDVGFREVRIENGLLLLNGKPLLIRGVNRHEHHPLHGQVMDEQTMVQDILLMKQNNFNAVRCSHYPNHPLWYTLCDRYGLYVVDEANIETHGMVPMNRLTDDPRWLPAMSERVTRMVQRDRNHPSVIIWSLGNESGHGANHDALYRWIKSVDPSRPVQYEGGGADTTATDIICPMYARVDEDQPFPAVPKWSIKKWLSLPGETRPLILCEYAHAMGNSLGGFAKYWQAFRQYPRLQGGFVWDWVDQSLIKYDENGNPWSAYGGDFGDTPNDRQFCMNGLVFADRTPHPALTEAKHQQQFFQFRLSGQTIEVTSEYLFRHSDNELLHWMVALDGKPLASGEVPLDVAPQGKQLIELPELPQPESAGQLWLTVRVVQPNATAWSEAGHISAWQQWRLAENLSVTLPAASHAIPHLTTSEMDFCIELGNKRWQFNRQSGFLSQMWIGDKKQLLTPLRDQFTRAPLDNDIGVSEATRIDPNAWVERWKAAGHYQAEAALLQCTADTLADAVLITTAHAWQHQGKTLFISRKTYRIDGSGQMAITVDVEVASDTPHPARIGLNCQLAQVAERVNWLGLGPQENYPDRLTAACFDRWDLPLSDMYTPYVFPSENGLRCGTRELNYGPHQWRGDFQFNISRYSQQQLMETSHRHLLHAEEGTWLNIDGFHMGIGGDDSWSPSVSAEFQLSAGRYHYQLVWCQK
Chain of Delta-type opioid receptor (P41143 whole entry): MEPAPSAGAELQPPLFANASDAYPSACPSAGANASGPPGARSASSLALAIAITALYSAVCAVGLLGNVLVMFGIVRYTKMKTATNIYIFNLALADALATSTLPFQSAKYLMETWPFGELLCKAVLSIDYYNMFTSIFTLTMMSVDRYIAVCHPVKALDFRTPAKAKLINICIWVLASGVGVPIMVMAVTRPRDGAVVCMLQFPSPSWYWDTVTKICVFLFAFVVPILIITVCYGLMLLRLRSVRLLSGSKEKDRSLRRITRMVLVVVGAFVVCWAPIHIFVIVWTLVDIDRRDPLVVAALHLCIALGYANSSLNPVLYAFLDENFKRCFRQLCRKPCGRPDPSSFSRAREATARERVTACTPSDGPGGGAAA
Chain of Mu-type opioid receptor (P35372 whole entry): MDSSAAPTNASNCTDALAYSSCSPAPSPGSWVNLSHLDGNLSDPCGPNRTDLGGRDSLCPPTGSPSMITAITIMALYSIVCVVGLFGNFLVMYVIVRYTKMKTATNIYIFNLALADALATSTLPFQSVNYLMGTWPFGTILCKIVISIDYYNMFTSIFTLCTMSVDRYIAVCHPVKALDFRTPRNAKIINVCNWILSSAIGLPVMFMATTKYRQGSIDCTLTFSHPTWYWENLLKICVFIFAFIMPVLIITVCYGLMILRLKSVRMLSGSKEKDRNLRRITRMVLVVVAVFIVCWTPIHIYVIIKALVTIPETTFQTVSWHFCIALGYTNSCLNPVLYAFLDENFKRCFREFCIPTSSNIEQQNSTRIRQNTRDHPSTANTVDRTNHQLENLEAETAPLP
Chain of Luciferin 4-monooxygenase (P08659 whole entry): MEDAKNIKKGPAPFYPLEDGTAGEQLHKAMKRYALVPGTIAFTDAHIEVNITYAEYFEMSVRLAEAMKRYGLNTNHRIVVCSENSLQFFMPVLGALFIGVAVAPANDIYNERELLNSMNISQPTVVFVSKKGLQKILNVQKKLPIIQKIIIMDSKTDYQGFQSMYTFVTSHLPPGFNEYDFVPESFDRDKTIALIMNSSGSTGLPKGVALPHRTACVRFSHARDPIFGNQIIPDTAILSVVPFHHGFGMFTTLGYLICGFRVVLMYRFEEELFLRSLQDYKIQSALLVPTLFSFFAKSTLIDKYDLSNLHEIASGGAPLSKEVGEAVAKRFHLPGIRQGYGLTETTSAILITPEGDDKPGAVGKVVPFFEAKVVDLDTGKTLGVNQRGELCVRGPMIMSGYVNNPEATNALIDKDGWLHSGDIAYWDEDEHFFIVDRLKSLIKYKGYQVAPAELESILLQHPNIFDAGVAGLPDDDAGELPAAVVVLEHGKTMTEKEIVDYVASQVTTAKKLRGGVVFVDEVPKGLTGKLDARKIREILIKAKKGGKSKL

For `Cc1ccc(Cl)cc1N1CCN(C(=O)CN(c2ccccc2)S(=O)(=O)N(C)C)CC1`, the IC50 [1] was 5.49 µM (active).

With `Cc1ccc(C2(O)C[N+](c3ccccc3)=C3SCCN32)cc1` (centres undefined) the EC50 [2] was 0.237 µM (active), the EC50 [3] was 0.596 µM (active) and the EC50 [4] was > 92.5 µM (inactive). For the same compound, the EC50 (Mu-type opioid receptor) was 48.2 µM (inactive) and the EC50 [5] was > 92.5 µM (inactive).

For `CCCn1ncc2c(Nc3ccc(C)c(C)c3)ncnc21`, the AC50 (HeLa) was 39.8 µM (active).

For `c1ccc(C2=NN(c3ccccc3)CC2)cc1`, the EC50 [6] was 0.11 µM (active), the EC50 [7] was 0.187 µM (active) and the EC50 (H4) was > 120 µM (not active). For the same compound, the EC50 [8] was > 112 µM (not active), the EC50 [9] was > 112 µM (not active) and the AC50 (HeLa) was 85.4 µM (active).

With `Nn1c(SCC(=O)NC(=O)NCc2ccco2)nnc1-c1ccc(OC(F)F)cc1` the IC50 [1] was 3.75 µM (active).

For `CC(C)CC[n+]1ccn(C2=C([N-]S(=O)(=O)c3ccccc3)C(=O)c3ccccc3C2=O)c1`, the IC50 [10] was 12.9 µM (active).

In the case of `CN(c1ccccc1)S(=O)(=O)c1ccc(NC(=O)c2nc(S(C)(=O)=O)ncc2Cl)cc1`, the EC50 (Beta-galactosidase) is reported as > 40 µM (inactive), the IC50 [11] is reported as 3.14 µM (active) and the IC50 (CHO) is reported as 2.03 µM (active). The AC50 (INS1) was 5.65 µM (active), the AC50 [12] was 0.502 µM (active) and the AC50 [13] was 10.5 µM (active). For the same compound, the AC50 [14] was 2.77 µM (active), the IC50 (Fatty acid synthase [15]) was 5.88 µM (active) and the IC50 (Fatty acid synthase [16]) was 5.01 µM (active).

For `Oc1ccc(Br)cc1/C=N/N1CCCCC1`, the EC50 [6] was 4.76 µM (active), the EC50 [7] was > 120 µM (not active) and the EC50 (H4) was > 120 µM (not active). The AC50 (HeLa) was 41.4 µM (active).

With `CCc1ccc(NC(=O)c2cc(-c3cccs3)on2)cc1` the AC50 (HeLa) was 160 µM (active).
